We go through eight compounds from ChEMBL document CHEMBL1201862, “PubChem BioAssay data set” (2004).

Some test systems named below: A498; BT-549; COLO 205; HCT-15; HOP-92; KM12; MDA-MB-435; MOLT-4; Malme-3M; RPMI-8226; SF-268; SK-MEL-5; SK-OV-3; SN12C; SR; SW-620; TK-10; UACC-62; NCI-H226.
Common to all, as to experiment: NCI-60 cell line screen, 48 h

SMILES strings stand for the structures.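 Step 1: Grow cells in 96-well plates. Step 2: Expose to compound for 48 hours at 5 concentrations. Step 3: Interpolate endpoints linearly; if unreached, use highest concentration. GI50 is the concentration that inhibits growth by half.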 Active and inactive are the calls of the source. No stated cut-off is given here; in the data, active = GI50 up to about 1.1 µM and inactive = higher.

With `CCCCCc1nnc(NS(=O)(=O)c2ccc(NC(=O)OCC(C)C)cc2)s1`, the GI50 is 2.64 µM (inactive) with A498; 32.1 µM (inactive) in the assay on BT-549; 18.5 µM (inactive) with COLO 205; 36 µM with HCT-15; 24.1 µM (inactive) in the assay on HOP-92; 36.1 µM (inactive) in the assay on KM12. Moreover, the GI50 was 33.7 µM (inactive) with MDA-MB-435; 20.1 µM (inactive) with MOLT-4; 34.9 µM (inactive) with Malme-3M; 19.3 µM (inactive) in the assay with RPMI-8226; 41.9 µM (inactive) in the assay on SF-268; 27.1 µM (inactive) with SK-MEL-5. For the same compound, the GI50 was 31.5 µM (inactive) with SK-OV-3; 33.9 µM (inactive) with SN12C; 16.4 µM (inactive) in the assay with SR; 40.6 µM (inactive) with SW-620; 36.9 µM (inactive) in the assay on TK-10; 29.5 µM (inactive) in the assay on UACC-62.

As to `CC(=O)O[C@H]1C(=O)[C@@]2(C)[C@H]([C@H](OC(=O)c3ccccc3)[C@]3(O)C[C@H](OC(=O)[C@H](O)[C@@H](NC(=O)c4ccc(N)cc4)c4ccccc4)C(C)=C1C3(C)C)[C@]1(OC(C)=O)CO[C@@H]1C[C@@H]2O`, the GI50 in the assay on A498 was 0.0902 µM (active); in the assay with BT-549, 0.0384 µM (active); in the assay on COLO 205 it was < 0.005 µM (active); in the assay on HCT-15 it was 2.68 µM; with HOP-92, 35.1 µM (inactive); with KM12, < 0.005 µM (active). Besides, the GI50 was 0.0158 µM (active) with MDA-MB-435; 0.0129 µM (active) in the assay on MOLT-4; < 0.005 µM (active) in the assay with NCI-H226; < 0.005 µM (active) with RPMI-8226; 0.0107 µM (active) in the assay with SF-268; < 0.005 µM (active) in the assay with SK-MEL-5. Further, the GI50 in the assay on SK-OV-3 was 0.0134 µM (active); in the assay on SR, < 0.005 µM (active); in the assay with SW-620 it was < 0.005 µM (active); in the assay with TK-10, 0.173 µM (active); with UACC-62 it was 0.00815 µM (active).

`Cc1cccc2oc3c(CC(=O)O)cccc3c(=O)c12`: the GI50 in the assay with A498 was > 100 µM (inactive); in the assay on BT-549, > 100 µM (inactive); with COLO 205, > 100 µM (inactive); in the assay with HCT-15 it was > 100 µM; in the assay with HOP-92, > 100 µM (inactive); in the assay on KM12 it was > 100 µM (inactive). The GI50 in the assay with MDA-MB-435, in the assay with MOLT-4, in the assay on Malme-3M, in the assay on NCI-H226, with RPMI-8226 and with SF-268 was > 100 µM (inactive) each time. The GI50 in the assay with SK-MEL-5, in the assay on SN12C, in the assay with SR, in the assay on SW-620 and in the assay on TK-10 was > 100 µM (inactive) throughout.

Turning to `O=S(=O)(O)c1cc(/N=N/c2cccc3ccccc23)c(O)c2ncccc12`, the GI50 with A498 is 31.8 µM (inactive); in the assay with BT-549, > 100 µM (inactive); with COLO 205, 33.4 µM (inactive); with HCT-15, 47.2 µM; with HOP-92 it was > 100 µM (inactive); in the assay with KM12 it was 80.2 µM (inactive). Also, the GI50 was > 100 µM (inactive) in the assay on MDA-MB-435; 26.9 µM (inactive) with MOLT-4; 16 µM (inactive) in the assay on NCI-H226; 41.2 µM (inactive) in the assay with RPMI-8226; 31.1 µM (inactive) in the assay with SK-MEL-5; > 100 µM (inactive) in the assay with SK-OV-3. Moreover, the GI50 with SN12C was 60 µM (inactive); in the assay on SR, 23.2 µM (inactive); with SW-620, 59.8 µM (inactive); in the assay on TK-10, > 100 µM (inactive); in the assay on UACC-62, 36.2 µM (inactive).

Regarding `COc1nc2c(c(=O)n1C)N=C(c1ccc(Cl)cc1)CC(c1ccccc1)N2` (configuration not stated), the GI50 in the assay with A498 is 41.6 µM (inactive); in the assay with BT-549, 27.4 µM (inactive); in the assay on COLO 205, 36 µM (inactive); with HCT-15, 15 µM; in the assay with HOP-92, 42.8 µM (inactive); in the assay with KM12 it was 16.7 µM (inactive). Further, the GI50 in the assay on MDA-MB-435 was 39 µM (inactive); in the assay on MOLT-4 it was 17.6 µM (inactive); in the assay on NCI-H226, 16.1 µM (inactive); with RPMI-8226 it was 24 µM (inactive); in the assay on SK-MEL-5 it was 19.5 µM (inactive); in the assay on SK-OV-3, 41.5 µM (inactive). The GI50 in the assay on SN12C was 21.7 µM (inactive); with SR, 23.7 µM (inactive); in the assay with SW-620, 46.3 µM (inactive); with UACC-62 it was 17.6 µM (inactive).

For `C=C1C[C@@H]2O[C@H]3[C@H]4[C@@H](C[C@@H](C)[C@@H](OC(C)=O)[C@H]42)[C@@H](C)CO[C@@]3(C)[C@H](OC(=O)CCCCCCC)C[C@H]1O`, the GI50 with A498 was 16.2 µM (inactive); in the assay with BT-549 it was 17.2 µM (inactive); in the assay on COLO 205, 16.4 µM (inactive); with HCT-15, 15.8 µM; with HOP-92 it was 15.2 µM (inactive); with KM12, 16.7 µM (inactive). Moreover, the GI50 in the assay with MDA-MB-435 is 18.7 µM (inactive); in the assay with MOLT-4, 22.9 µM (inactive); in the assay with NCI-H226, 10.5 µM (inactive); in the assay on RPMI-8226 it was 16.1 µM (inactive); with SF-268, 16.1 µM (inactive); in the assay on SK-MEL-5 it was 15.5 µM (inactive). In addition, the GI50 is 17.3 µM (inactive) in the assay on SN12C; 15.8 µM (inactive) in the assay with SR; 21.4 µM (inactive) in the assay with SW-620; 17.2 µM (inactive) in the assay on TK-10; 16.3 µM (inactive) in the assay with UACC-62.

As to `CCCNC(=O)Cn1c2c(c3ccccc31)CCCC2`, the GI50 in the assay on A498 is 27.8 µM (inactive); in the assay on BT-549 it was 87.7 µM (inactive); with COLO 205, > 100 µM (inactive); in the assay with HCT-15, 45.2 µM; with HOP-92, > 100 µM (inactive); with MDA-MB-435, > 100 µM (inactive). The GI50 in the assay on MOLT-4 was 43.6 µM (inactive); with Malme-3M it was > 100 µM (inactive); in the assay with RPMI-8226, 40.7 µM (inactive); in the assay with SF-268, > 100 µM (inactive); in the assay with SK-MEL-5, 33.7 µM (inactive); with SK-OV-3, 94.8 µM (inactive). Besides, the GI50 in the assay with SN12C was 65.2 µM (inactive); with SR, 42.8 µM (inactive); with SW-620 it was 55.6 µM (inactive); with TK-10, > 100 µM (inactive); with UACC-62 it was 45.4 µM (inactive).

Consider `COC(=O)[C@@H]1[C@H](O)CC[C@H]2[C@@]1(C)CC[C@@H](C)[C@]2(COC(C)=O)CC(=O)c1ccoc1`, for which the GI50 in the assay on A498 is > 50 µM (inactive); with BT-549, > 50 µM (inactive); in the assay on COLO 205 it was > 50 µM (inactive); in the assay with HCT-15, > 50 µM; with HOP-92, > 50 µM (inactive); in the assay on KM12, > 50 µM (inactive). In addition, the GI50 with MDA-MB-435 was > 50 µM (inactive); in the assay with MOLT-4, 28.6 µM (inactive); in the assay with NCI-H226 it was > 50 µM (inactive); in the assay with RPMI-8226, 26.1 µM (inactive); in the assay on SF-268 it was > 50 µM (inactive); in the assay on SK-MEL-5 it was > 50 µM (inactive). Further, the GI50 in the assay on SK-OV-3 was > 50 µM (inactive); in the assay on SN12C, > 50 µM (inactive); in the assay on SR, > 50 µM (inactive); in the assay on SW-620, > 50 µM (inactive); in the assay on TK-10, > 50 µM (inactive); in the assay with UACC-62, 20.9 µM (inactive).
